{
  "source": "patent US20240209028A1",
  "about": "“CNP COMPOUNDS” (priority 2022, published 2024)",
  "note": "Starred links: 1 amine or outer side, 2 acyl side, 3 side chain; linkers in the order of their positions; H or OH if unused. Positions of bridges follow the written chain, without caps; N, C: chain ends. Residues, ends and D or L forms follow the SMILES beside them. *: point of attachment. C18 diacid = O=C(O)CCCCCCCCCCCCCCCCC(=O)*; γGlu = O=C(O)[C@H](CCC(=O)[*:2])N[*:1]; AEEA = NCCOCCOCC(=O)O",
  "data": [
    {"target": "T1, human natriuretic peptide receptor 2 (hNPR2) (Homo sapiens, UniProt P20594)", "T1 construct": "expressed in transfected cells; host or cells: HEK293 (ATCC CRL-1573), clone 35, co-transfected with pGloSensor-42F", "T1 sequence (P20594 23-1047)": "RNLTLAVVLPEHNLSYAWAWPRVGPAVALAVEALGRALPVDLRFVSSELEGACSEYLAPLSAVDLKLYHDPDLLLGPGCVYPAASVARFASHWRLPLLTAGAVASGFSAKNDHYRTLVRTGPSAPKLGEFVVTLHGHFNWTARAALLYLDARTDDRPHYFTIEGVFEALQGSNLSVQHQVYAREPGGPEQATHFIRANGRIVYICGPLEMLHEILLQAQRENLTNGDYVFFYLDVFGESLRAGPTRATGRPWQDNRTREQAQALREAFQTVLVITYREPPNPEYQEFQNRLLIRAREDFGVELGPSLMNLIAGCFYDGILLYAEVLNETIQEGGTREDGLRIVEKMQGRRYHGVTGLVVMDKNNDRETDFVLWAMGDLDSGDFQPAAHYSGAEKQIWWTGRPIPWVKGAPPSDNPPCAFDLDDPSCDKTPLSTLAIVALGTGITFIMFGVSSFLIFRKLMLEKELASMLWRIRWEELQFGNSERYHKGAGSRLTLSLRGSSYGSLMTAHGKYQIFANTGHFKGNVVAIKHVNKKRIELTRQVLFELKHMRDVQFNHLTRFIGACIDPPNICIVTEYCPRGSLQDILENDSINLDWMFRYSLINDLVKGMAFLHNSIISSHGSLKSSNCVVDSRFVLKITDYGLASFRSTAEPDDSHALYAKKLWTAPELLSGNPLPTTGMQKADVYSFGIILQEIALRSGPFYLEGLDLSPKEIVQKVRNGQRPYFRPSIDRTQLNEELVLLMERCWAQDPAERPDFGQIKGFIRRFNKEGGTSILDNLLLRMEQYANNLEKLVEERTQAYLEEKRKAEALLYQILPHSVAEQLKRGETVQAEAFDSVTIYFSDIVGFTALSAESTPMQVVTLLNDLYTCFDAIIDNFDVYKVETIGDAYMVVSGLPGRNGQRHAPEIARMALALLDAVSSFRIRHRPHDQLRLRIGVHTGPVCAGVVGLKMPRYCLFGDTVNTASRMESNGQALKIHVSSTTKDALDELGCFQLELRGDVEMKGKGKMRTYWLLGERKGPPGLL", "assay": "In vitro hNPR2 activity assay (cGMP GloSensor reporter, HEK293)", "type": "cell-based", "conditions": "potency relative to CNP22 (0065)", "outline": "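Potency is the EC50 from a four-parameter logistic fit, also expressed relative to the in-plate CNP22 control (×100), with at least two replicates. Compounds (ten concentrations, […], HSA-free diluent with 1% OVA, 0.01% Tween20) were incubated 30 min at 37 °C on HEK293 cells co-expressing hNPR2 and a GloSensor cGMP luciferase. Luminescence detected with Bright-Glo.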", "units": {"hNPR2 0% HSA. [EC50% rel CNP]": "%"}, "values": [
      {"smiles": "CC[C@H](C)[C@@H]1NC(=O)[C@H](CCCNC(=N)N)NC(=O)[C@H](CC(=O)O)NC(=O)[C@H](CC(C)C)NC(=O)[C@@H]2CCCN2C(=O)[C@H](CC(C)C)NC(=O)CNC(=O)[C@H](Cc2ccccc2)NC(=O)[C@@H](NC(=O)CNC(=O)[C@H](CO)NC(=O)[C@H](CO)NC(=O)[C@H](CC(C)C)NC(=O)CNC(=O)[C@H](CCC(=O)O)NC(=O)[C@H](CCCCN)NC(=O)[C@H](CCC(N)=O)NC(=O)[C@H](C)NC(=O)CNC(=O)[C@H](CCC(=O)O)NC(=O)COCCOCCNC(=O)COCCOCCNC(=O)CC[C@H](NC(=O)CCCCCCCCCCCCCCCCC(=O)O)C(=O)O)CSSC[C@@H](C(=O)O)NC(=O)CNC(=O)[C@H](CC(C)C)NC(=O)CNC(=O)[C@H](CO)NC(=O)[C@H](CC(C)C)NC(=O)[C@H](CO)NC(=O)CNC1=O", "note": "[compound 1288] ({C18 diacid-γGlu-AEEA-AEEA}-EGAQKEGLSSGCFGLPLDRIGSLSGLGC-OH; disulfide 12-28)", "hNPR2 0% HSA. [EC50% rel CNP]": 3.0},
      {"smiles": "CC[C@H](C)[C@@H]1NC(=O)[C@H](CCCNC(=N)N)NC(=O)[C@H](CC(=O)O)NC(=O)[C@H](CC(C)C)NC(=O)[C@@H]2CCCN2C(=O)[C@H](CC(C)C)NC(=O)CNC(=O)[C@H](Cc2ccccc2)NC(=O)[C@@H](NC(=O)CNC(=O)[C@H](CO)NC(=O)[C@H](CO)NC(=O)[C@H](CC(C)C)NC(=O)CNC(=O)[C@H](CCC(=O)O)NC(=O)[C@H](CCCCN)NC(=O)[C@H](CCC(N)=O)NC(=O)[C@H](C)NC(=O)CNC(=O)[C@H](CCC(=O)O)NC(=O)[C@H](Cc2ccc(O)cc2)NC(=O)COCCOCCNC(=O)COCCOCCNC(=O)CC[C@H](NC(=O)CCCCCCCCCCCCCCCCC(=O)O)C(=O)O)CSSC[C@@H](C(=O)O)NC(=O)CNC(=O)[C@H](CC(C)C)NC(=O)CNC(=O)[C@H](CO)NC(=O)[C@H](CC(C)C)NC(=O)[C@H](CO)NC(=O)CNC1=O", "note": "[compound 1289] ({C18 diacid-γGlu-AEEA-AEEA}-YEGAQKEGLSSGCFGLPLDRIGSLSGLGC-OH; disulfide 13-29)", "hNPR2 0% HSA. [EC50% rel CNP]": 2.9},
      {"smiles": "CC[C@H](C)[C@@H]1NC(=O)[C@H](CCCNC(=N)N)NC(=O)[C@H](CC(=O)O)NC(=O)[C@H](CC(C)C)NC(=O)[C@@H]2CCCN2C(=O)[C@H](CC(C)C)NC(=O)CNC(=O)[C@H](Cc2ccccc2)NC(=O)[C@@H](NC(=O)CNC(=O)[C@H](CO)NC(=O)[C@H](CO)NC(=O)[C@H](CC(C)C)NC(=O)CNC(=O)[C@H](CCCCN)NC(=O)[C@H](CCCCN)NC(=O)[C@H](CCC(N)=O)NC(=O)[C@H](C)NC(=O)CNC(=O)[C@H](CCC(=O)O)NC(=O)[C@H](Cc2ccc(O)cc2)NC(=O)COCCOCCNC(=O)COCCOCCNC(=O)CC[C@H](NC(=O)CC[C@H](NC(=O)CCCCCCCCCCCCCCCCC(=O)O)C(=O)O)C(=O)O)CSSC[C@@H](C(=O)O)NC(=O)CNC(=O)[C@H](CC(C)C)NC(=O)CNC(=O)[C@H](CO)NC(=O)[C@H](CC(C)C)NC(=O)[C@H](CO)NC(=O)CNC1=O", "note": "[compound 1290] ({C18 diacid-γGlu-γGlu-AEEA-AEEA}-YEGAQKKGLSSGCFGLPLDRIGSLSGLGC-OH; disulfide 13-29)", "hNPR2 0% HSA. [EC50% rel CNP]": 7.0},
      {"smiles": "CC[C@H](C)[C@@H]1NC(=O)[C@H](CCCNC(=N)N)NC(=O)[C@H](CC(=O)O)NC(=O)[C@H](CC(C)C)NC(=O)[C@@H]2CCCN2C(=O)[C@H](CC(C)C)NC(=O)CNC(=O)[C@H](Cc2ccccc2)NC(=O)[C@@H](NC(=O)CNC(=O)[C@H](CO)NC(=O)[C@H](CO)NC(=O)[C@H](CC(C)C)NC(=O)CNC(=O)[C@@H](NC(=O)[C@H](CCCCN)NC(=O)[C@H](CCC(N)=O)NC(=O)[C@H](C)NC(=O)CNC(=O)[C@H](Cc2c[nH]cn2)NC(=O)[C@H](Cc2ccc(O)cc2)NC(=O)COCCOCCNC(=O)COCCOCCNC(=O)CC[C@H](NC(=O)CCCCCCCCCCCCCCCCC(=O)O)C(=O)O)[C@@H](C)O)CSSC[C@@H](C(=O)O)NC(=O)CNC(=O)[C@H](CC(C)C)NC(=O)CNC(=O)[C@H](CO)NC(=O)[C@H](CC(C)C)NC(=O)[C@H](CO)NC(=O)CNC1=O", "note": "[compound 1302] ({C18 diacid-γGlu-AEEA-AEEA}-YHGAQKTGLSSGCFGLPLDRIGSLSGLGC-OH; disulfide 13-29)", "hNPR2 0% HSA. [EC50% rel CNP]": 26.5},
      {"smiles": "CC[C@H](C)[C@@H]1NC(=O)[C@H](CCCNC(=N)N)NC(=O)[C@H](CC(=O)O)NC(=O)[C@H](CC(C)C)NC(=O)[C@@H]2CCCN2C(=O)[C@H](CC(C)C)NC(=O)CNC(=O)[C@H](Cc2ccccc2)NC(=O)[C@@H](NC(=O)CNC(=O)[C@H](CO)NC(=O)[C@H](CO)NC(=O)[C@H](CC(C)C)NC(=O)CNC(=O)[C@@H](NC(=O)[C@H](Cc2c[nH]cn2)NC(=O)[C@H](CCC(N)=O)NC(=O)[C@H](C)NC(=O)CNC(=O)[C@H](CCCCN)NC(=O)[C@H](Cc2ccc(O)cc2)NC(=O)COCCOCCNC(=O)COCCOCCNC(=O)CC[C@H](NC(=O)CCCCCCCCCCCCCCCCC(=O)O)C(=O)O)[C@@H](C)O)CSSC[C@@H](C(=O)O)NC(=O)CNC(=O)[C@H](CC(C)C)NC(=O)CNC(=O)[C@H](CO)NC(=O)[C@H](CC(C)C)NC(=O)[C@H](CO)NC(=O)CNC1=O", "note": "[compound 1305] ({C18 diacid-γGlu-AEEA-AEEA}-YKGAQHTGLSSGCFGLPLDRIGSLSGLGC-OH; disulfide 13-29)", "hNPR2 0% HSA. [EC50% rel CNP]": 8.7},
      {"smiles": "CC[C@H](C)[C@@H]1NC(=O)[C@H](CCCNC(=N)N)NC(=O)[C@H](CC(=O)O)NC(=O)[C@H](CC(C)C)NC(=O)[C@@H]2CCCN2C(=O)[C@H](CC(C)C)NC(=O)CNC(=O)[C@H](Cc2ccccc2)NC(=O)[C@@H](NC(=O)CNC(=O)[C@H](CCCCN)NC(=O)[C@H](CO)NC(=O)[C@H](CC(C)C)NC(=O)CNC(=O)[C@H](CCCCN)NC(=O)[C@H](CCCCN)NC(=O)[C@H](CCC(N)=O)NC(=O)[C@H](C)NC(=O)CNC(=O)[C@H](Cc2c[nH]cn2)NC(=O)[C@H](CCC(=O)O)NC(=O)COCCOCCNC(=O)COCCOCCNC(=O)CC[C@H](NC(=O)CCCCCCCCCCCCCCCCC(=O)O)C(=O)O)CSSC[C@@H](C(=O)O)NC(=O)CNC(=O)[C@H](CC(C)C)NC(=O)CNC(=O)[C@H](CO)NC(=O)[C@H](CC(C)C)NC(=O)[C@H](CO)NC(=O)CNC1=O", "note": "[compound 1309] ({C18 diacid-γGlu-AEEA-AEEA}-EHGAQKKGLSKGCFGLPLDRIGSLSGLGC-OH; disulfide 13-29)", "hNPR2 0% HSA. [EC50% rel CNP]": 33.3},
      {"smiles": "CC[C@H](C)[C@@H]1NC(=O)[C@H](CCCNC(=N)N)NC(=O)[C@H](CC(=O)O)NC(=O)[C@H](CC(C)C)NC(=O)[C@@H]2CCCN2C(=O)[C@H](CC(C)C)NC(=O)CNC(=O)[C@H](Cc2ccccc2)NC(=O)[C@@H](NC(=O)CNC(=O)[C@H](CO)NC(=O)[C@H](CO)NC(=O)[C@@H](NC(=O)CNC(=O)[C@H](CCCCN)NC(=O)[C@H](CCCCN)NC(=O)[C@H](CCC(N)=O)NC(=O)[C@H](C)NC(=O)CNC(=O)[C@H](Cc2c[nH]cn2)NC(=O)[C@H](CCC(=O)O)NC(=O)COCCOCCNC(=O)COCCOCCNC(=O)CC[C@H](NC(=O)CCCCCCCCCCCCCCCCC(=O)O)C(=O)O)C(C)C)CSSC[C@@H](C(=O)O)NC(=O)CNC(=O)[C@H](CC(C)C)NC(=O)CNC(=O)[C@H](CO)NC(=O)[C@H](CC(C)C)NC(=O)[C@H](CO)NC(=O)CNC1=O", "note": "[compound 1311] ({C18 diacid-γGlu-AEEA-AEEA}-EHGAQKKGVSSGCFGLPLDRIGSLSGLGC-OH; disulfide 13-29; C-terminus assumed)", "hNPR2 0% HSA. [EC50% rel CNP]": 12.7},
      {"smiles": "CC[C@H](C)[C@@H]1NC(=O)[C@H](CCCNC(=N)N)NC(=O)[C@H](CC(=O)O)NC(=O)[C@H](CC(C)C)NC(=O)[C@@H]2CCCN2C(=O)[C@H](CC(C)C)NC(=O)CNC(=O)[C@H](Cc2ccccc2)NC(=O)[C@@H](NC(=O)CNC(=O)[C@H](CO)NC(=O)[C@H](CO)NC(=O)[C@@H](NC(=O)CNC(=O)[C@@H](NC(=O)[C@H](CCCCN)NC(=O)[C@H](CCC(N)=O)NC(=O)[C@H](C)NC(=O)CNC(=O)[C@H](Cc2c[nH]cn2)NC(=O)[C@H](CCC(=O)O)NC(=O)COCCOCCNC(=O)COCCOCCNC(=O)CC[C@H](NC(=O)CCCCCCCCCCCCCCCCC(=O)O)C(=O)O)[C@@H](C)O)C(C)C)CSSC[C@@H](C(=O)O)NC(=O)CNC(=O)[C@H](CC(C)C)NC(=O)CNC(=O)[C@H](CO)NC(=O)[C@H](CC(C)C)NC(=O)[C@H](CO)NC(=O)CNC1=O", "note": "[compound 1312] ({C18 diacid-γGlu-AEEA-AEEA}-EHGAQKTGVSSGCFGLPLDRIGSLSGLGC-OH; disulfide 13-29)", "hNPR2 0% HSA. [EC50% rel CNP]": 9.0}
    ]}
  ]
}
